According to publication PMC6403309, “Hybrid approach to sieve out natural compounds against dual targets in Alzheimer’s Disease” (Scientific Reports, 2019):
Where two headings read alike, the source gives them in different places.

Tests used:
[1] = target: T1, BACE1 (Homo sapiens, UniProt P56817); assay: BACE1 inhibition assay (FRET activity assay kit); format: biochemical; conditions: for inhibition at 1 µM: read-out: Single point inhibition % (SPI1μM)
T1 construct: purchased Sigma Aldrich

[2] = target: T2, Aβ25–35 (Homo sapiens, UniProt P05067); assay: Thioflavin T assay of Aβ25–35 aggregation; format: biochemical; conditions: compound 100 µM co-incubated with Aβ25–35 100 µM, 72 hours, 37 °C
T2 construct: Aβ25–35 was bought from Anaspec in powdered form; purchased Anaspec
Protocol: The dye Thioflavin T (ThT), is used to quantify amyloid aggregates. On binding to the beta sheets of amyloid aggregates, the rotation of the ThT rings is hampered thus preserving the excited states leading to fluorescence enhancement. The Aβ25–35 sample was prepared by dissolving it in HFIP to remove any preformed aggregates and keeping aliquots at −80 °C. On the day of assay, aliquot of the HFIP dissolved Aβ25–35 (final concentration 100 µM) was lyophilized. Thereafter the lyophilized sample was dissolved in phosphate buffer. A stock solution of the compounds with concentration of 1 mM was prepared in DMSO. The compounds with final concentration of 100 µM were co-incubated with Aβ25–35 for 72 hours at 37 °C. The co-incubated samples were diluted five times. A stock solution of Thioflavin T was prepared in DMSO and final concentration of 15 µM was added. The fluorescence was measured by excitation at 440 nm and emission at 460–550 nm.

T1 sequence (P56817 46-501): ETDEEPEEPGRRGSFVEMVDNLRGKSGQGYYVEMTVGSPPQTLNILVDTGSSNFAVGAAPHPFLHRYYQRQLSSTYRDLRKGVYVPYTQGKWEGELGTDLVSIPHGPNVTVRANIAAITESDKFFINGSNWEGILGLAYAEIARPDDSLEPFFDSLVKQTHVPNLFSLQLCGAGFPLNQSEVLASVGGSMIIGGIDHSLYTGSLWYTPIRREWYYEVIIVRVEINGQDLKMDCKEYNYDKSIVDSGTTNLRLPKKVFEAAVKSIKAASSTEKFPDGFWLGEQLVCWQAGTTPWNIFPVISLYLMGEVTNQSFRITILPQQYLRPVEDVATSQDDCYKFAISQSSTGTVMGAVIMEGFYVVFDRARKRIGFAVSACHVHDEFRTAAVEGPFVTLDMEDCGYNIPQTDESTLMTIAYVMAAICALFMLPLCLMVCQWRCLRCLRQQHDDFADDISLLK

Structure (SMILES) | inhibition at 1 µM [1] | BACE1 inhibition activity (in words) ([1]; compound 1 µM) | inhibition at 1 µM ([1]; compound 1 µM, 37 °C, 2 hours) | reduction in the fibril formation [2]
O=c1c(O)c(-c2ccc(O)c(O)c2)oc2c(O)c(O)cc(O)c12 [Gossypetin, reference compound] | 4.6% |  |  | 
COC(=O)C(Cc1ccccc1)NC(=O)COc1cc(O)c2c(=O)c(-c3ccc4c(c3)OCCO4)coc2c1 (stereo not shown) [ZINC01758814] |  | moderate BACE1 inhibition activity | 17% | more than 50%
